# Values of other authors as cited in patent publication US8940275B2, “Nanoparticles based on gadolinium coordination polymers as highly sensitive T1 MRI contrast agents” (Kent State University, priority 2010, dated 2015).
# Settings: commercial agents, field not given
row,Structure (SMILES),r1 [mM⁻¹ s⁻¹]
1,CNC[C@H](O)[C@@H](O)[C@H](O)[C@H](O)CO.CNC[C@H](O)[C@@H](O)[C@H](O)[C@H](O)CO.O=C([O-])CN(CCN(CC(=O)[O-])CC(=O)O)CCN(CC(=O)[O-])CC(=O)O.[Gd+3] [Magnevist ®],4.3

# Settings: clinical MRI contrast agents; 1.5 T
row,Structure (SMILES),R1 (typical relaxivity value) [mM⁻¹ s⁻¹]
1,CC(O)CN1CCN(CC(=O)[O-])CCN(CC(=O)[O-])CCN(CC(=O)[O-])CC1.[Gd+3] (stereo not drawn) [ProHance ®],4.4
2,O=C([O-])CN1CCN(CC(=O)[O-])CCN([C@H](CO)[C@H](O)CO)CCN(CC(=O)[O-])CC1.[Gd+3] (racemic) [Gadovist ®],5.3
3,CNC(=O)CN(CCN(CCN(CC(=O)[O-])CC(=O)NC)CC(=O)[O-])CC(=O)[O-].[Gd+3] [Omniscan ®],4.6
4,CCOc1ccc(CC(CN(CCN(CC(=O)[O-])CC(=O)[O-])CC(=O)[O-])N(CC(=O)[O-])CC(=O)[O-])cc1.[Gd+3].[Na+].[Na+] (stereo not drawn) [Primovist],7.3
5,CNC[C@H](O)[C@@H](O)[C@H](O)[C@H](O)CO.O=C([O-])CN1CCN(CC(=O)[O-])CCN(CC(=O)O)CCN(CC(=O)[O-])CC1.[Gd+3] [Dotarem ®],4.2
6,CNC[C@H](O)[C@@H](O)[C@H](O)[C@H](O)CO.CNC[C@H](O)[C@@H](O)[C@H](O)[C@H](O)CO.O=C([O-])CN(CCN(CC(=O)[O-])CC(=O)O)CCN(CC(=O)[O-])CC(=O)O.[Gd+3] [Magnevist ®],4.3
7,CNC[C@H](O)[C@@H](O)[C@H](O)[C@H](O)CO.CNC[C@H](O)[C@@H](O)[C@H](O)[C@H](O)CO.O=C([O-])CN(CCN(CC(=O)[O-])CC(=O)O)CCN(CC(=O)O)C(COCc1ccccc1)C(=O)[O-].[Gd+3] (stereo not drawn) [MultiHance],6.7
8,COCCNC(=O)CN(CCN(CCN(CC(=O)[O-])CC(=O)NCCOC)CC(=O)[O-])CC(=O)[O-].[Gd+3] [OptiMARK],5.2
